Test system: 926638-142-R-J1-PDC complex spheroid viability
Assay: Anticancer human tumor 926638-142-R-J1-PDC patient-derived endometrial carcinoma cell line growth inhibition [POLQ]
Settings: for IC50: curve of first compound; for viability, T/C: stronger effect = lower value
Procedure, shortened: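 PDC + HUVEC + MSC complex spheroids; POLQ inhibitors ± partner drugs; top conc. at/near clinical Cmax, else 10 microM (SN-38 1 microM), half-log dilutions; 37 degrees C, 5% CO2.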
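Further: spheroids exposed to drugs for one week before readout.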
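Wherever viability, T/C is given: percent viability relative to DMSO vehicle control wells set as 100%.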

## CC(=O)O[C@H]1C(=O)[C@@]2(C)[C@H]([C@H](OC(=O)c3ccccc3)[C@]3(O)C[C@H](OC(=O)[C@H](O)[C@@H](NC(=O)c4ccccc4)c4ccccc4)C(C)=C1C3(C)C)[C@]1(OC(C)=O)CO[C@@H]1C[C@@H]2O + Cc1cccc(N(C)C(=O)C2C(O)CCN2c2nc(C)cc(C(F)(F)F)c2C#N)c1
Second compound 0.0316 µM
  IC50: 659 nM
Second compound 0.1 µM
  IC50: > 3000 nM
Second compound 0.316 µM
  IC50: 800 nM
Second compound 1 µM
  IC50: 2380 nM
Second compound 3.16 µM
  IC50: 1300 nM
Second compound 10 µM
  IC50: 817 nM
Second compound 0.0316 µM, first compound 0.00949 µM
  viability, T/C: 88.1%
Second compound 0.0316 µM, first compound 0.03 µM
  viability, T/C: 62.9%
Second compound 0.0316 µM, first compound 0.0949 µM
  viability, T/C: 56.8%
Second compound 0.0316 µM, first compound 0.3 µM
  viability, T/C: 56.1%
Second compound 0.0316 µM, first compound 0.949 µM
  viability, T/C: 53.9%
Second compound 0.0316 µM, first compound 3 µM
  viability, T/C: 41.5%
Second compound 0.1 µM, first compound 0.00949 µM
  viability, T/C: 87.5%
Second compound 0.1 µM, first compound 0.03 µM
  viability, T/C: 65.8%
Second compound 0.1 µM, first compound 0.0949 µM
  viability, T/C: 62.1%
Second compound 0.1 µM, first compound 0.3 µM
  viability, T/C: 52.4%
Second compound 0.1 µM, first compound 0.949 µM
  viability, T/C: 58.3%
Second compound 0.1 µM, first compound 3 µM
  viability, T/C: 51.4%
Second compound 0.316 µM, first compound 0.00949 µM
  viability, T/C: 79.2%
Second compound 0.316 µM, first compound 0.03 µM
  viability, T/C: 77%
Second compound 0.316 µM, first compound 0.0949 µM
  viability, T/C: 66.8%
Second compound 0.316 µM, first compound 0.3 µM
  viability, T/C: 56.1%
Second compound 0.316 µM, first compound 0.949 µM
  viability, T/C: 50.5%
Second compound 0.316 µM, first compound 3 µM
  viability, T/C: 43.2%
Second compound 1 µM, first compound 0.00949 µM
  viability, T/C: 76.3%
Second compound 1 µM, first compound 0.03 µM
  viability, T/C: 68.6%
Second compound 1 µM, first compound 0.0949 µM
  viability, T/C: 61.7%
Second compound 1 µM, first compound 0.3 µM
  viability, T/C: 57.6%
Second compound 1 µM, first compound 0.949 µM
  viability, T/C: 67.2%
Second compound 1 µM, first compound 3 µM
  viability, T/C: 43.1%
Second compound 3.16 µM, first compound 0.00949 µM
  viability, T/C: 70.6%
Second compound 3.16 µM, first compound 0.03 µM
  viability, T/C: 61%
Second compound 3.16 µM, first compound 0.0949 µM
  viability, T/C: 55.4%
Second compound 3.16 µM, first compound 0.3 µM
  viability, T/C: 55.4%
Second compound 3.16 µM, first compound 0.949 µM
  viability, T/C: 57%
Second compound 3.16 µM, first compound 3 µM
  viability, T/C: 43.8%
Second compound 10 µM, first compound 0.00949 µM
  viability, T/C: 72.8%
Second compound 10 µM, first compound 0.03 µM
  viability, T/C: 63.2%
Second compound 10 µM, first compound 0.0949 µM
  viability, T/C: 55.9%
Second compound 10 µM, first compound 0.3 µM
  viability, T/C: 57.5%
Second compound 10 µM, first compound 0.949 µM
  viability, T/C: 50.8%
Second compound 10 µM, first compound 3 µM
  viability, T/C: 44.2%

## CC[C@@]1(O)C(=O)OCc2c1cc1n(c2=O)Cc2cc3c(CN(C)C)c(O)ccc3nc2-1 + Cc1cccc(N(C)C(=O)C2C(O)CCN2c2nc(C)cc(C(F)(F)F)c2C#N)c1
Second compound 0.0316 µM
  IC50: 68.9 nM
Second compound 0.1 µM
  IC50: 74.9 nM
Second compound 0.316 µM
  IC50: 73.8 nM
Second compound 1 µM
  IC50: > 100 nM
Second compound 3.16 µM
  IC50: > 100 nM
Second compound 10 µM
  IC50: > 100 nM
Second compound 0.0316 µM, first compound 0.000316 µM
  viability, T/C: 100%
Second compound 0.0316 µM, first compound 0.001 µM
  viability, T/C: 91.2%
Second compound 0.0316 µM, first compound 0.00316 µM
  viability, T/C: 74.6%
Second compound 0.0316 µM, first compound 0.01 µM
  viability, T/C: 70.4%
Second compound 0.0316 µM, first compound 0.0316 µM
  viability, T/C: 63.1%
Second compound 0.0316 µM, first compound 0.1 µM
  viability, T/C: 43.4%
Second compound 0.1 µM, first compound 0.000316 µM
  viability, T/C: 86.4%
Second compound 0.1 µM, first compound 0.001 µM
  viability, T/C: 94.6%
Second compound 0.1 µM, first compound 0.00316 µM
  viability, T/C: 87.9%
Second compound 0.1 µM, first compound 0.01 µM
  viability, T/C: 76.8%
Second compound 0.1 µM, first compound 0.0316 µM
  viability, T/C: 64.7%
Second compound 0.1 µM, first compound 0.1 µM
  viability, T/C: 45.2%
Second compound 0.316 µM, first compound 0.000316 µM
  viability, T/C: 94.3%
Second compound 0.316 µM, first compound 0.001 µM
  viability, T/C: 88.9%
Second compound 0.316 µM, first compound 0.00316 µM
  viability, T/C: 70.4%
Second compound 0.316 µM, first compound 0.01 µM
  viability, T/C: 76.3%
Second compound 0.316 µM, first compound 0.0316 µM
  viability, T/C: 57.4%
Second compound 0.316 µM, first compound 0.1 µM
  viability, T/C: 46.3%
Second compound 1 µM, first compound 0.000316 µM
  viability, T/C: 93.7%
Second compound 1 µM, first compound 0.001 µM
  viability, T/C: 74%
Second compound 1 µM, first compound 0.00316 µM
  viability, T/C: 88.8%
Second compound 1 µM, first compound 0.01 µM
  viability, T/C: 68.3%
Second compound 1 µM, first compound 0.0316 µM
  viability, T/C: 68%
Second compound 1 µM, first compound 0.1 µM
  viability, T/C: 50.4%
Second compound 3.16 µM, first compound 0.000316 µM
  viability, T/C: 78.3%
Second compound 3.16 µM, first compound 0.001 µM
  viability, T/C: 99%
Second compound 3.16 µM, first compound 0.00316 µM
  viability, T/C: 80.7%
Second compound 3.16 µM, first compound 0.01 µM
  viability, T/C: 63%
Second compound 3.16 µM, first compound 0.0316 µM
  viability, T/C: 61.2%
Second compound 3.16 µM, first compound 0.1 µM
  viability, T/C: 47%
Second compound 10 µM, first compound 0.000316 µM
  viability, T/C: 97.9%
Second compound 10 µM, first compound 0.001 µM
  viability, T/C: 71.1%
Second compound 10 µM, first compound 0.00316 µM
  viability, T/C: 75.7%
Second compound 10 µM, first compound 0.01 µM
  viability, T/C: 68%
Second compound 10 µM, first compound 0.0316 µM
  viability, T/C: 62.2%
Second compound 10 µM, first compound 0.1 µM
  viability, T/C: 47.5%

— PubChem BioAssay AID1963826 (Molecular Pharmacology Branch, DTP, NCI, 2024)
